# From patent US6890885B2, “Herbicidal composition” (priority 2000, dated 2005)
# Values joined by “and” are separate entries in the source; they are usually repeats but may differ in a detail not shown here. Equal entries are not always repeated.
# Tests used:
# Assay type in all cases: in vivo
# test plants = test: Post-emergence test: herbicidal action (% action) of the herbicide on its own and as a mixture, with expected action We according to Colby
# Text: A synergistic effect exists whenever the action of the active ingredient combination of compounds of formula 1 and 2.1 to 2.51 is greater than the sum of the actions of the active ingredients applied separately.
# (§1) The herbicidal action to be expected We for a given combination of two herbicides can be calculated as follows (see COLBY, S. R., “Calculating synergistic and antagonistic response of herbicide combinations”, Weeds 15, pages 20-22,1967):
# • X=percentage herbicidal action on treatment with the compound of formula I at a rate of application of p kg per hectare, compared with the untreated control (=0%). • Y=percentage herbicidal action on treatment with a compound of formula 2.1 to 2.51 at a rate of application of q kg per hectare, compared with the untreated control. • We=expected herbicidal action (percentage herbicidal action compared with the untreated control) following treatment with the compounds of formulae 1 and 2.1 to 2.51 at a rate of application of p+q kg of active ingredient per hectare.
# (§2) When the action actually observed is greater than the value to be expected We, there is a synergistic effect.
# Experiment Description—Post-emergence Test
# The test plants are grown to the 2- to 3-leaf stage in plastics pots under greenhouse conditions. A standard soil is used as cultivation substrate. At the 2- to 3-leaf stage, the herbicide is applied to the test plants on its own and as a mixture. The application is carried out using an aqueous suspension of the test substances in 500 liters of water/ha. The rates of application depend on the optimum doses ascertained under field conditions and greenhouse conditions. The tests are evaluated after 33 days (% action, 100%=plant has died, 0%=no phytotoxic action).
# Mixture A contains as active ingredients 915 g/liter of the compound of formula 2.2a and 45 g/liter of the compound of formula 3.1.
# In the following Tables, evaluation is carried out after 21 days: […]
# [1] = test system: crop plants, e.g. maize and cereals; test: Safening action: phytotoxic action of the herbicides on crop plants with and without safener; settings: 50 g/ha herbicide alone, applied at 4-leaf stage, 4 weeks after application
# Method: Biological Example: Safening Action
# The test plants are grown in plastics pots under greenhouse conditions to the 4-leaf stage. At that stage, the herbicides alone, and the mixtures of the herbicides with the test compounds that are to be tested as safeners, are applied to the test plants. The application is in the form of an aqueous suspension of the test compounds prepared from a 25% wettable powder (Example F3, b)) with 500 liters of water/ha. 4 weeks after application, the phytotoxic action of the herbicides on the crop plants, e.g. maize and cereals, is evaluated using a percentage scale. 100% denotes that the test plant has died, 0% denotes no phytotoxic action.
# The same results are obtained when the mixtures are formulated in accordance with Examples F1, F2 and F4 to F8.
# [2] = test system: Monocotyledonous and dicotyledonous test plants; test: Pre-emergence test: herbicidal action (% action) of single active ingredients and mixtures, with expected action We according to Colby; settings: for herbicidal action (% action): evaluated after 36 days
# Text: as §1, §2
# Experiment Description—Pre-emergence Test
# Monocotyledonous and dicotyledonous test plants are sown in standard soil in plastics pots. Directly after sowing, the test substances are applied in aqueous suspension by spraying (500 liters of water/ha). The rates of application depend on the optimum doses ascertained under field conditions and greenhouse conditions. The test plants are then grown on in the greenhouse under optimum conditions. The tests are evaluated after 36 days (% action, 100%=plant has died, 0%=no phytotoxic action).
# In the following Tables, evaluation is carried out after 14 days:
# In the following Tables, evaluation is carried out after 31 days: […]
smiles,measurement,setting,value
"Cc1nc(C(F)(F)F)ccc1C(=O)C1=C(O)C2CCC(C2)C1=O (centres unmarked) [Compound 1.001, 4-hydroxy-3-(2-methyl-6-trifluoromethyl-pyridine-3-carbonyl)-bicyclo[3.2.1]oct-3-en-2-one]",herbicidal action,"test plants; Ipomoea, 6.25 g/ha, post-emergence, after 33 days",0%
same,herbicidal action,"test plants; Ipomoea, 6.25 g/ha, post-emergence, after 33 days (Table B10)",0%
same,herbicidal action,"test plants; Ipomoea, 12.5 g/ha, post-emergence, after 21 days",30%
same,herbicidal action,"test plants; Ipomoea, 12.5 g/ha, post-emergence, after 33 days",0%
same,herbicidal action,"test plants; Ipomoea, 12.5 g/ha, post-emergence, after 33 days (Table B8)",0%
same,herbicidal action,"test plants; Ipomoea, 25 g/ha, post-emergence, after 21 days (Table B29)",30%
same,herbicidal action,"test plants; Ipomoea, 25 g/ha, post-emergence, after 21 days (Table B30)",30%
same,herbicidal action,"test plants; Ipomoea, 25 g/ha, post-emergence, after 21 days (Table B31)",30%
same,herbicidal action,"test plants; Ipomoea, 25 g/ha, post-emergence, after 21 days (Table B33)",30%
same,herbicidal action,"test plants; Polygonum, 6.25 g/ha, post-emergence, after 33 days",0%
same,herbicidal action,"test plants; Polygonum, 6.25 g/ha, post-emergence, after 33 days (Table B10)",0%
same,herbicidal action,"test plants; Polygonum, 12.5 g/ha, post-emergence, after 21 days (Table B32)",30%
same,herbicidal action,"test plants; Polygonum, 12.5 g/ha, post-emergence, after 21 days (Table B34)",30%
same,herbicidal action,"test plants; Polygonum, 12.5 g/ha, post-emergence, after 21 days (Table B35)",30%
same,herbicidal action,"test plants; Polygonum, 12.5 g/ha, post-emergence, after 33 days",0%
same,herbicidal action,"test plants; Polygonum, 12.5 g/ha, post-emergence, after 33 days (Table B8)",0%
same,herbicidal action,"test plants; Polygonum, 25 g/ha, post-emergence, after 21 days (Table B29)",75%
same,herbicidal action,"test plants; Polygonum, 25 g/ha, post-emergence, after 21 days (Table B31)",75%
same,herbicidal action,"test plants; Polygonum, 25 g/ha, post-emergence, after 21 days (Table B36)",75%
same,herbicidal action,"test plants; Xanthium, 6.25 g/ha, post-emergence, after 33 days",70%
same,herbicidal action,"test plants; Xanthium, 6.25 g/ha, post-emergence, after 33 days (Table B10)",70%
same,herbicidal action,"test plants; Xanthium, 12.5 g/ha, post-emergence, after 33 days",80%
same,herbicidal action,"test plants; Xanthium, 12.5 g/ha, post-emergence, after 33 days (Table B8)",80%
same,herbicidal action,"test plants; Xanthium, 25 g/ha, post-emergence, after 21 days",90%
same,phytotoxic action,[1]; Abutilon,100%
same,phytotoxic action,[1]; Maize,50%
same,phytotoxic action,[1]; Setaria,100%
same,herbicidal action,"[2]; Amaranthus, 6 g/ha, after 23 days",10%
same,herbicidal action,"[2]; Chenopodium, 6 g/ha, after 23 days (Table B37)",50%
same,herbicidal action,"[2]; Chenopodium, 6 g/ha, after 23 days (Table B38)",50%
same,herbicidal action,"[2]; Chenopodium, 12.5 g/ha, after 14 days (Table B19)",80%
same,herbicidal action,"[2]; Chenopodium, 12.5 g/ha, after 14 days (Table B20)",80%
same,herbicidal action,"[2]; Chenopodium, 25 g/ha, after 14 days",80%
same,herbicidal action (% action),"[2]; Chenopodium, Compd. 1.001 6.25 g/ha",0%
same,herbicidal action (% action),"[2]; Chenopodium, Compd. 1.001 12.5 g/ha",0%
same,herbicidal action (% action),"[2]; Chenopodium, Compd. 1.001 25 g/ha",0%
same,herbicidal action,"[2]; Cyperus, 12.5 g/ha, after 14 days (Table B19)",0%
same,herbicidal action,"[2]; Cyperus, 12.5 g/ha, after 14 days (Table B20)",0%
same,herbicidal action,"[2]; Cyperus, 25 g/ha, after 14 days (Table B18)",0%
same,herbicidal action,"[2]; Cyperus, 25 g/ha, after 14 days (Table B22)",10%
same,herbicidal action,"[2]; Ipomoea, 25 g/ha, after 31 days (Table B25)",70%
same,herbicidal action,"[2]; Ipomoea, 25 g/ha, after 31 days (Table B26)",70%
same,herbicidal action,"[2]; Ipomoea, 25 g/ha, after 31 days (Table B27)",70%
same,herbicidal action (% action),"[2]; Ipomoea, Compd. 1.001 6.25 g/ha",0%
same,herbicidal action (% action),"[2]; Ipomoea, Compd. 1.001 12.5 g/ha",0%
same,herbicidal action (% action),"[2]; Ipomoea, Compd. 1.001 25 g/ha",30%
same,herbicidal action,"[2]; Polygonum, 25 g/ha, after 31 days (Table B23)",0%
same,herbicidal action,"[2]; Polygonum, 25 g/ha, after 31 days (Table B24)",0%
same,herbicidal action,"[2]; Polygonum, 50 g/ha, after 31 days",0%
same,herbicidal action (% action),"[2]; Sida, Compd. 1.001 6.25 g/ha",0%
same,herbicidal action (% action),"[2]; Sida, Compd. 1.001 12.5 g/ha",0%
same,herbicidal action (% action),"[2]; Sida, Compd. 1.001 25 g/ha",0%
same,herbicidal action,"[2]; Solanum, 12.5 g/ha, after 14 days (Table B19)",75%
same,herbicidal action,"[2]; Solanum, 12.5 g/ha, after 14 days (Table B20)",75%
same,herbicidal action,"[2]; Solanum, 12.5 g/ha, after 14 days (Table B21)",75%
same,herbicidal action,"[2]; Solanum, 25 g/ha, after 14 days",80%
same,herbicidal action (% action),"[2]; Sorghum, Compd. 1.001 6.25 g/ha",0%
same,herbicidal action (% action),"[2]; Sorghum, Compd. 1.001 12.5 g/ha",0%
same,herbicidal action (% action),"[2]; Sorghum, Compd. 1.001 25 g/ha",30%
same,herbicidal action,"[2]; Xanthium, 25 g/ha, after 31 days (Table B25)",80%
same,herbicidal action,"[2]; Xanthium, 25 g/ha, after 31 days (Table B26)",80%
same,herbicidal action,"[2]; Xanthium, 25 g/ha, after 31 days (Table B27)",80%
"CCc1cccc(C)c1N(COCCl)C(C)COC (centres unmarked) [Compound 2.2.b, reference compound]",herbicidal action,"[2]; Chenopodium, 300 g/ha, after 14 days",0%
same,herbicidal action,"[2]; Cyperus, 300 g/ha, after 14 days",0%
same,herbicidal action,"[2]; Solanum, 300 g/ha, after 14 days",40%
"CSc1nnc(C(C)(C)C)c(=O)n1N [Compound 2.14, metribuzin, reference compound]",herbicidal action,"[2]; Ipomoea, 125 g/ha, after 31 days",0%
same,herbicidal action,"[2]; Polygonum, 125 g/ha, after 14 days (Table B13)",30%
same,herbicidal action,"[2]; Polygonum, 250 g/ha, after 14 days",50%
same,herbicidal action,"[2]; Xanthium, 125 g/ha, after 31 days",20%
"O=C(O)CNCP(=O)(O)O [Compound 2.16, glyphosate, reference compound]",herbicidal action,test plants; in vivo,20% and 10%
"CCC(CC)Nc1c([N+](=O)[O-])cc(C)c(C)c1[N+](=O)[O-] [Compound 2.18, pendimethalin, reference compound]",herbicidal action,"[2]; Polygonum, 500 g/ha, after 14 days",80%
"COc1c(Cl)ccc(Cl)c1C(=O)O [Compound 2.19, dicamba, reference compound]",herbicidal action,test plants; in vivo,60%
"COC(=O)CSc1cc(/N=c2\sc(=O)n3n2CCCC3)c(F)cc1Cl [Compound 2.25, fluthiacet-methyl, reference compound]",herbicidal action,"test plants; Ipomoea, 2 g/ha, post-emergence, after 21 days",0%
same,herbicidal action,"test plants; Polygonum, 2 g/ha, post-emergence, after 21 days",0%
"CC(C)N(C(=O)COc1nnc(C(F)(F)F)s1)c1ccc(F)cc1 [Compound 2.30, fluthiamid, reference compound]",herbicidal action,"[2]; Cyperus, 100 g/ha, after 14 days (Table B22)",0%
same,herbicidal action,"[2]; Polygonum, 60 g/ha, after 14 days (Table B15)",30%
"O=C(O)CNCP(=O)(O)O [Compound 2.33, sulfosate, reference compound]",herbicidal action,"test plants; Polygonum, 360 g/ha, post-emergence, after 21 days (Table B32)",0%
